Measurements as given in US6407206B1, “Peptides, methods for assaying human pepsinogen I or human pepsin I and assay kits” (Ono Pharmaceutical Co., Ltd., priority 1996, dated 2002).
Square brackets hold non-standard residues; d marks the D form. Ends that are not written are not given here. * marks the point of attachment. Phe(4-NO2) = N[C@@H](Cc1ccc([N+](=O)[O-])cc1)C(=O)O; pNA = O=[N+]([O-])c1ccc(N*)cc1; Nle = CCCC[C@H](N)C(=O)O

Experiments:
Type in all cases: biochemical
human pepsin I [1] = assay: Digestion of the substrate by human pepsin I, assay by HPLC (released H-Y-pNA); conditions: for ratio of relative activity of pepsin I/pepsin II: calculated according to the result from assay by HPLC; for Activitry of pepsin, Determination by HPLC, pepsin I: pepsin 909 ng/ml, substrate 0.5 mM, 37° C.
Protocol: (§1) Formic acid buffer or glycine buffer (pH2.0˜3.0) containing each peptide (0.5 mM) prepared in Example 1˜5 (a)
(§2) An aqueous solution of human pepsin I or human pepsin II (0.01 mg/ml)
(§3) Enzyme solution I (0.1 ml) was added to Reagent (1.0 ml). After incubation of the mixture at 37° C. for 10, 30, 60 minutes, the mixture solution (0.3 ml) was collected. To the collected solution, 2N—NaOH (0.025 ml) was added to terminate the reaction. After addition of 2N—HCl (0.025 ml) to the mixture, protein was removed by the ultrafiltration. The assaying H-Y-pNA (Nle-pNA: Example 1 and 2; Tyr-pNA: Example 3; Phe-pNA: Example 4; Phe(NO2)-pNA: Example 5) which was released after digesting by human pepsin in the obtained solution was carried out by HPLC using C18 column.
(§4) The ratio of pepsin I/pepsin II was calculated according to the result from assay by HPLC. Such assay is carried out to confirm that a substrate was digested by pepsin I or pepsin II correctly and that H-Y-pNA was released.

human pepsin II [2] = target: T1, human pepsin II (Homo sapiens, UniProt P20142); assay: Digestion of the substrate by human pepsin II, assay by HPLC (released H-Y-pNA); conditions: pepsin 909 ng/ml, substrate 0.5 mM, 37° C.
T1 sequence (P20142 60-388): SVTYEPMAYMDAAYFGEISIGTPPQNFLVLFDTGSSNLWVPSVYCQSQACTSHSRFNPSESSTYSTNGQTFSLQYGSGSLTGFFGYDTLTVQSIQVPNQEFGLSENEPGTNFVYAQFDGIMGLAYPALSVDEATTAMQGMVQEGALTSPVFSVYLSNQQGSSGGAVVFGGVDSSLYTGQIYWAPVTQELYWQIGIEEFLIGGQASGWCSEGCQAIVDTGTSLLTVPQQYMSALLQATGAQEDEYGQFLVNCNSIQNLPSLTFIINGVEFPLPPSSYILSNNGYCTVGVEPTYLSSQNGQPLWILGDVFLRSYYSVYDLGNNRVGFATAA
Protocol: as §1, §2, §3, §4

human pepsin I [3] = assay: Digestion of the substrate by human pepsin I, assay by coloring p-NA (aminopeptidase M, absorbance at 405 nm); conditions: substrate 0.5 mM, 37° C.
Protocol: as §1, §2
(§5) Aminopeptidase M (marketed from Beringer Manheim Co., derived from pig kidney) was dissolved into 1M Tris-HCl buffer (pH9.0) to be at concentration of 2U/I.
(§6) (2) Assay by Coloring p-NA
(§7) Enzyme solution I (0.1 ml) was added to Reagent (1.0 ml). After incubation of the mixture at 37° C. for 10 minutes, Enzyme solution II (0.05 ml) was added to the mixture solution (0.25 ml). After incubation of the mixture at 37° C. for 5 minutes, the increase in absorbance at 405 nm (Es) was determined. On the other hand, reagent blank value (E(BL)) was determined by the same procedure as above using purified water. According to the following, the increase in absorbance (E) was calculated.

human pepsin II [4] = target: T1, human pepsin II; assay: Digestion of the substrate by human pepsin II, assay by coloring p-NA (aminopeptidase M, absorbance at 405 nm); conditions: substrate 0.5 mM, 37° C.
Protocol: as §1, §2, §5, §6, §7

[5] = reaction pH 3.0, pepsin 909 ng/ml
[6] = reaction pH 2.0, pepsin 909 ng/ml

| Activitry of pepsin, Determination by HPLC, pepsin II (human pepsin II [2]; reaction pH 3.0) [μM/min · 909 ngEnz/ml] | Activitry of pepsin, Determination by p-NA, pepsin I (human pepsin I [3]; [5]) | Activitry of pepsin, Determination by p-NA, pepsin II (human pepsin II [4]; [5]) | Activitry of pepsin, Determination by HPLC, pepsin II (human pepsin II [2]; reaction pH 2.0) [μM/min · 909 ngEnz/ml] | Activitry of pepsin, Determination by p-NA, pepsin I (human pepsin I [3]; [6]) | Activitry of pepsin, Determination by p-NA, pepsin II (human pepsin II [4]; [6]) | Substance | ratio of relative activity of pepsin I/pepsin II (human pepsin I [1]; reaction pH 3.0) | Activitry of pepsin, Determination by HPLC, pepsin I (human pepsin I [1]; reaction pH 3.0) [μM/min · 909 ngEnz/ml] | ratio of relative activity of pepsin I/pepsin II (human pepsin I [1]; reaction pH 2.0) | Activitry of pepsin, Determination by HPLC, pepsin I (human pepsin I [1]; reaction pH 2.0) [μM/min · 909 ngEnz/ml] |
| --- | --- | --- | --- | --- | --- | --- | --- | --- | --- | --- |
| 0.37 | 716.7 mABS/10 min · 909 ngEnz/ml | 30.8 mABS/10 min · 909 ngEnz/ml |  |  |  | LysProIleGluPheNle-pNA.2CF3COOH (KPIEF[Nle]-pNA; also: trifluoroacetate salt (2CF3COOH)) [Example 2] | 23.2 | 8.6 |  |  |
| 0.07 | 100.0 mABS/10 min · 909 ngEnz/ml | 5.8 mABS/10 min · 909 ngEnz/ml |  |  |  | LysProIleGluPhePhe(NO2)-pNA.2CF3COOH (KPIEF[Phe(4-NO2)]-pNA; also: 2 TFA salt) [Example 5] | 17.1 | 1.2 |  |  |
| 0.16 | 908.3 mABS/10 min · 909 ngEnz/ml | 13.3 mABS/10 min · 909 ngEnz/ml |  |  |  | LysProIleGluPhePhe-pNA -2CF3COOH (KPIEFF-pNA; also: trifluoroacetate salt (2CF3COOH)) [Example 4] | 68.1 | 10.9 |  |  |
|  |  |  | 0.37 | 1425.0 mABS/10 min · 909 ngEnz/ml | 30.8 mABS/10 min · 909 ngEnz/ml | LysProIleGluPheTyr-pNA.2CF3COOH (KPIEFY-pNA; also: TFA salt (2CF3COOH)) [Example 3] |  |  | 46.2 | 17.1 |
|  |  |  | 0.69 | 3036.2 mABS/10 min · 909 ngEnz/ml | 57.3 mABS/10 min · 909 ngEnz/ml | N^α-AcLysProIleGlu-Phe(NO2)-Nle-pNA.CF3COOH (Ac-KPIE[Phe(4-NO2)][Nle]-pNA; also: TFA salt) [Example 5(a)] |  |  | 52.8 | 36.4 |

| Substance | Activitry of pepsin, Determination by HPLC, pepsin II (human pepsin II [2]; reaction pH 3.0) [μM/min · 909 ngEnz/ml] | Activitry of pepsin, Determination by p-NA, pepsin I (human pepsin I [3]; [5]) | Activitry of pepsin, Determination by p-NA, pepsin II (human pepsin II [4]; [5]) | Activitry of pepsin, Determination by HPLC, pepsin II (human pepsin II [2]; reaction pH 2.0) [μM/min · 909 ngEnz/ml] | Activitry of pepsin, Determination by p-NA, pepsin I (human pepsin I [3]; [6]) | Activitry of pepsin, Determination by p-NA, pepsin II (human pepsin II [4]; [6]) | ratio of relative activity of pepsin I/pepsin II (human pepsin I [1]; reaction pH 3.0) | Activitry of pepsin, Determination by HPLC, pepsin I (human pepsin I [1]; reaction pH 3.0) [μM/min · 909 ngEnz/ml] | ratio of relative activity of pepsin I/pepsin II (human pepsin I [1]; reaction pH 2.0) | Activitry of pepsin, Determination by HPLC, pepsin I (human pepsin I [1]; reaction pH 2.0) [μM/min · 909 ngEnz/ml] |
| --- | --- | --- | --- | --- | --- | --- | --- | --- | --- | --- |
| N^α-Ac-LysProIleGluPheNle-pNA.CF3COOH (Ac-KPIEF[Nle]-pNA; also: TFA salt) [Example 1] |  |  |  | 0.55 | 4391.7 mABS/10 min · 909 ngEnz/ml | 45.8 mABS/10 min · 909 ngEnz/ml |  |  | 95.8 | 52.7 |
